In patent publication US11078202B2, “β-lactamase inhibitor and use thereof” (priority 2018, dated 2021):
Like-named read-outs stand apart in the source and are kept apart here.

How the values were obtained:
Assay type in all cases: cell-based
[1] = tested on: Escherichia coli XNWB 0009 (SHV-5A); assay: MIC of antibiotics alone, broth microdilution
Description: (§1) The bacterial strains used for the minimum inhibitory concentration (MIC) test were frozen in a −80° C. ULT freezer and thawed 2 days before use. A small amount of frozen bacterial strains were scraped using a sterile inoculating loop, streaked onto a TSA solid culture dish for inoculation, and then cultured for 20-24 h at 35±2° C. in a normal atmospheric environment.
(§2) 5-10 colonies with similar morphology were picked from the culture dish using a sterile inoculating loop and then re-streaked onto a suitable solid culture dish. Then the dish was placed into a normal incubator for culture for 20-24 h at 35±2° C.
(§3) 5-10 single bacterial colonies were picked from the solid culture dish, resuspended in 500 μL of 0.9% NaCl, and adjusted to an OD600 of 0.1-0.15 with a spectrophotometer.
(§4) The bacteria were then diluted 300-fold with 1.1×CAMHB.
(§5) After addition, the 6 assay plates were covered by sterile covers. The mixtures in the assay plates were centrifuged by a centrifuge at 1000 rpm for 30 s, and mixed uniformly by oscillating with a microplate oscillator at 800 rpm for 1 min, and then cultured in a common incubator for 16-20 h at 35±2° C.
(§6) The minimum inhibitory concentration of each compound was recorded by reference to guidelines from the Clinical and Laboratory Standards Institute.
(§7) The minimum inhibitory concentrations of the compounds of the present invention and antibiotics (imipenem, ceftazidime, and ampicillin) against 11 strains of bacteria were tested in this study by reference to the medium microdilution method as indicated by the Clinical and Laboratory Standards Institute. The effect of the test compounds in combination with imipenem, ceftazidime, and ampicillin was also tested. Compounds were diluted two-fold in 96-well plates from the highest detection concentration of 64 μg/mL. The test compounds were tested in combination with a fixed concentration of imipenem (4 μg/mL), ceftazidime (8 μg/mL), and ampicillin (8 μg/mL). The bacterial inocula in the assay plates were resuscitated from TSA and diluted in CAMHB, while growth controls (GC wells) and sterile controls (SC wells) were set up in the assay plates.

[2] = tested on: Klebsiella pneumoniae XNWB 0003 (KPC-11, SHV-12); assay: MIC of antibiotics alone, broth microdilution; details: antibiotic alone, K. pneumoniae XNWB 0003, β-lactamase KPC-11, SHV-12, read-out: MIC
Description: as §1, §2, §3, §4, §5, §6, §7

[3] = tested on: Pseudomonas aeruginosa XNWB 0008 (AmpC); assay: MIC of antibiotics alone, broth microdilution; details: antibiotic alone, P. aeruginosa XNWB 0008, β-lactamase AmpC, read-out: MIC
Description: as §1, §2, §3, §4, §5, §6, §7

[4] = tested on: Klebsiella pneumoniae XNWB 0001 (KPC-1/2); assay: MIC of antibiotics alone, broth microdilution; details: antibiotic alone, K. pneumoniae XNWB 0001, β-lactamase KPC-1/2
Description: as §1, §2, §3, §4, §5, §6, §7

[5] = tested on: Klebsiella pneumoniae XNWB 0006 (CTX-M-15, SHV); assay: MIC of antibiotics alone, broth microdilution
Description: as §1, §2, §3, §4, §5, §6, §7

[6] = tested on: Acinetobacter baumannii XNWB 0007 (AmpC); assay: MIC of antibiotics alone, broth microdilution; details: antibiotic alone, A. baumannii XNWB 0007, β-lactamase AmpC
Description: as §1, §2, §3, §4, §5, §6, §7

[7] = tested on: Enterobacter aerogenes XNWB 0011 (TEM-10); assay: MIC of antibiotics alone, broth microdilution; details: Klebsiella aerogenes; antibiotic alone; E. aerogenes XNWB 0011, β-lactamase TEM-10
Description: as §1, §2, §3, §4, §5, §6, §7

[8] = tested on: Klebsiella pneumoniae XNWB 0005 (KPC-3); assay: MIC of antibiotics alone, broth microdilution; details: antibiotic alone, K. pneumoniae XNWB 0005, β-lactamase KPC-3, read-out: MIC
Description: as §1, §2, §3, §4, §5, §6, §7

[9] = tested on: Escherichia coli XNWB 0010 (SHV-2); assay: MIC of antibiotics alone, broth microdilution; details: antibiotic alone, E. coli XNWB 0010, β-lactamase SHV-2
Description: as §1, §2, §3, §4, §5, §6, §7

[10] = tested on: Klebsiella pneumoniae XNWB 0002 (KPC-2, SHV-5); assay: microbe, parasite or virus in culture
Description: as §1, §2, §3, §4, §5, §6, §7

[11] = tested on: Klebsiella pneumoniae XNWB 0004 (KPC-2, SHV-12); assay: microbe, parasite or virus in culture
Description: as §1, §2, §3, §4, §5, §6, §7

Compound | MIC [1] [µg/mL] | MIC [2] [µg/mL] | MIC [3] [µg/mL] | MIC [4] [µg/mL] | MIC ([5]; antibiotic alone, K. pneumoniae XNWB 0006, β-lactamase CTX-M-15, SHV, read-out: MIC) [µg/mL] | MIC [6] [µg/mL] | MIC [7] [µg/mL] | MIC [8] [µg/mL] | MIC [9] [µg/mL] | MIC [10] [µg/mL] | MIC [11] [µg/mL] | MIC [5] [µg/mL]
CC1(C)S[C@@H]2[C@H](NC(=O)[C@H](N)c3ccccc3)C(=O)N2[C@H]1C(=O)O [Ampicillin] | > 32 | > 32 | > 32 | > 32 | > 32 | > 32 | > 32 | > 32 | > 32 | > 32 | > 32 | 
C[C@@H](O)[C@H]1C(=O)N2C(C(=O)O)=C(SCCN=CN)C[C@H]12 [Imipenem] | 0.125 to 0.5 | 8 to 16 | 16 to 32 | 64 to 128 |  | 32 to 64 | 0.5 to 1 | 32 to 64 | ≤ 0.125 | 32 to 64 | 64 | 0.125 to 0.5
